In article PMC6071684, “Defining the hydrophobic interactions that drive competence stimulating peptide (CSP)-ComD binding in Streptococcus pneumoniae” (Beilstein Journal of Organic Chemistry, 2018):
pEC50: −log10 of the molar value. Where a SMILES comes first, the peptide text is derived from it. Where no end group is shown, it is not given here. [ ]: non-standard residue; d: D form. Phg = N[C@H](C(=O)O)c1ccccc1; Nle = CCCC[C@H](N)C(=O)O; Nva = CCC[C@H](N)C(=O)O

How the values were obtained:
ComD1 receptor = ComD1 receptor (Streptococcus pneumoniae serotype 2, UniProt A0A0H2ZM50); test: cell-based
Procedure: (§1) To assess QS modulation, we utilized the β-gal reporter strains, constructed by Lau and co-worker. In these strains the lacZ gene is under the control of QS (pcomX). Thus, upon QS activation, ComE will bind pcomX and transcribe lacZ (in addition to upregulation of ComX). ComD modulation can therefore be quantified by measuring β-gal activity. The peptides were first screened for their ability to activate/inhibit the ComD1 and ComD2 receptors at high concentration (10 µM).
(§2) To examine the ability of the synthesized CSP analogs to modulate the ComD receptors, and thus the QS circuit in S. pneumoniae, β-galactosidase assays were performed using D39pcomX::lacZ (group I) and TIGR4pcomX::lacZ (group II) reporter strains as described in [19].
(§3) Bacterial growth conditions. Bacteria from a freezer stock were grown as described in [19]. Briefly, the bacteria were streaked into a THY agar plate supplemented with 5% donor horse serum and chloramphenicol at a final concentration of 4 µg/mL. The plate was incubated for 8 h in a CO2 incubator (37 °C with 5% CO2). Fresh colonies (single colony for D39pcomX::lacZ; multiple colonies for TIGR4pcomX::lacZ) were picked into sterilized cultural tubes containing 5 mL of THY broth supplemented with chloramphenicol at a final concentration of 4 µg/mL and the cultures were incubated in a CO2 incubator overnight (15 h). Overnight cultures were then diluted (1:50 for D39pcomX::lacZ; 1:10 for TIGR4pcomX::lacZ) with THY and the resulting solution was incubated in a CO2 incubator for 3–4 hours, until the bacteria reached early exponential stage (0.30–0.35 for D39pcomX::lacZ; 0.20–0.25 for TIGR4pcomX::lacZ) as determined by using a plate reader.
(§4) β-Galactosidase assay. Activation assays. […] Briefly, an initial activation screening was performed at high concentration (10 µM) for all CSP analogs. 2 µL of 1 mM solution of CSP analogs in dimethyl sulfoxide (DMSO) were added in triplicate to a clear 96-well microtiter plate. […] 2 µL of DMSO was added in triplicate and served as the negative control for both groups. Then, 198 µL of bacterial culture was added to each well containing CSP and analogs, the plate was incubated at 37 °C for 30 minutes, and the OD600nm was measured. In order to measure the β-galactosidase activity in the pneumococcal culture, the cells were lysed by incubating the culture for 30 minutes at 37 °C with 20 µL of 0.1% Triton X-100. In a new plate, 100 µL of Z-buffer solution (60.2 mM Na2HPO4, 45.8 mM NaH2PO4, 10 mM KCl, and 1.0 mM MgSO4 in 18 MΩ H2O; pH was adjusted to 7.0 and the buffer was sterilized before use) containing 2-nitrophenyl-β-D-galactopyranoside (ONPG) at a final concentration of 0.4 mg/mL was added, followed by 100 µL of lysate, and the plate was incubated for 3 hours at 37 °C. The reaction was stopped by adding 50 µL of 1 M sodium carbonate solution, and the OD420nm and OD550nm were measured using a plate reader. […] For calculation of Miller units, please see data analysis below.
(§5) Analysis of activation/inhibition data. Miller units were calculated using the following formula: […]
(§6) Abs420 is the absorbance of ortho-nitrophenol (ONP). Abs550 is the scatter from cell debris, which, when multiplied by 1.75 approximates the scatter observed at 420 nm. t is the duration of incubation with ONPG in minutes, v is volume of lysate in milliliters, and Abs600 reflects cell density.

ComD2 receptor = ComD2 receptor (Streptococcus pneumoniae serotype 4, UniProt A0A0H2US84); test: cell-based; details: for ComD2 primary agonism screening: low induction, EC50 not determined: TIGR4pcomX::lacZ, 10 µM peptide, only analogs with greater than 75% activation compared to CSP2 were taken to EC50
Procedure: as §1, §2, §3, §4, §5, §6

[1] = molecular target: ComD1 receptor (S. pneumoniae (endogenous in D39pcomX::lacZ))

Chain of ComD2 receptor (A0A0H2US84 entry or part of it): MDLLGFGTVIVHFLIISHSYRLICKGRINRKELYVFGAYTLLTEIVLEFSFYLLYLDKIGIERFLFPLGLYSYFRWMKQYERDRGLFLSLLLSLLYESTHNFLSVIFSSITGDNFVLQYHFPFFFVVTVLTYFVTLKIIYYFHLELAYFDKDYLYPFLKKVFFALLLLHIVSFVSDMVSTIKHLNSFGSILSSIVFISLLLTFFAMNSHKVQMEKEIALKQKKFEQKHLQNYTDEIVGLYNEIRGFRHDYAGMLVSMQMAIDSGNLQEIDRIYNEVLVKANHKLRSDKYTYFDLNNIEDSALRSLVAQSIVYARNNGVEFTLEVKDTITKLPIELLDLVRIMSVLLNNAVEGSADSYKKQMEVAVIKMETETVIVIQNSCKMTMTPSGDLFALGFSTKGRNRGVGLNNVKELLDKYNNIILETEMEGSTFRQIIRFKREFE
Chain of ComD1 receptor (A0A0H2ZM50 entry or part of it): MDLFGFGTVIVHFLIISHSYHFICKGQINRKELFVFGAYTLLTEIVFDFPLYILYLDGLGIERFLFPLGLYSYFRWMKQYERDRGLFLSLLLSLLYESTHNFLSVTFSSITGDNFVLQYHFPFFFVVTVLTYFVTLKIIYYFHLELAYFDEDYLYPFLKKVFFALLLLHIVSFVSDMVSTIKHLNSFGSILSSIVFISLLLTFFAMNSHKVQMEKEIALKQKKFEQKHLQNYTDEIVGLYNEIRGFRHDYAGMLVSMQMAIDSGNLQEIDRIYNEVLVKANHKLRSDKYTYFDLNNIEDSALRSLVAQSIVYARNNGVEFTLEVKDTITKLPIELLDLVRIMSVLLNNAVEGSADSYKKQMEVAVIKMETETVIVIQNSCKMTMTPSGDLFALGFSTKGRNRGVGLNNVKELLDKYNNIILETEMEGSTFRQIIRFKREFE

Molecule	pEC50 (ComD1 receptor)	pEC50 (ComD2 receptor)	EC50 of activation of pcomX::lacZ (β-galactosidase) in reporter strain D39pcomX::lacZ (group I, ComD1) [1] [nM]	ComD2 primary agonism screening: low induction, EC50 not determined (ComD2 receptor)
CC[C@H](C)[C@H](NC(=O)[C@H](Cc1ccccc1)NC(=O)[C@H](CC(=O)O)NC(=O)[C@H](CCCNC(=N)N)NC(=O)[C@H](Cc1ccccc1)NC(=O)[C@H](CCc1ccccc1)NC(=O)[C@H](CCCCN)NC(=O)[C@H](CO)NC(=O)[C@H](CC(C)C)NC(=O)[C@H](CCCNC(=N)N)NC(=O)[C@H](CCSC)NC(=O)[C@@H](N)CCC(=O)O)C(=O)N[C@@H](CC(C)C)C(=O)N[C@@H](CCC(N)=O)C(=O)N[C@@H](CCCNC(=N)N)C(=O)N[C@@H](CCCCN)C(=O)N[C@@H](CCCCN)C(=O)O [CSP1-F7HF]	7.09	6.50		
CSP1-L13V (peptide)			31	
CC[C@H](C)[C@H](NC(=O)[C@H](Cc1ccccc1)NC(=O)[C@H](CC(=O)O)NC(=O)[C@H](CCCNC(=N)N)NC(=O)[C@@H](NC(=O)[C@H](Cc1ccccc1)NC(=O)[C@H](CCCCN)NC(=O)[C@H](CO)NC(=O)[C@H](CC(C)C)NC(=O)[C@H](CCCNC(=N)N)NC(=O)[C@H](CCSC)NC(=O)[C@@H](N)CCC(=O)O)c1ccccc1)C(=O)N[C@@H](CC(C)C)C(=O)N[C@@H](CCC(N)=O)C(=O)N[C@@H](CCCNC(=N)N)C(=O)N[C@@H](CCCCN)C(=O)N[C@@H](CCCCN)C(=O)O [CSP1-F8FG] (H-EMRLSKF[Phg]RDFILQRKK-OH; N-terminus assumed)	6.05			–^e
CSP1-I12V (peptide)			15.3	
CCCC[C@H](NC(=O)[C@@H](NC(=O)[C@H](Cc1ccccc1)NC(=O)[C@H](CC(=O)O)NC(=O)[C@H](CCCNC(=N)N)NC(=O)[C@H](Cc1ccccc1)NC(=O)[C@H](Cc1ccccc1)NC(=O)[C@H](CCCCN)NC(=O)[C@H](CO)NC(=O)[C@H](CC(C)C)NC(=O)[C@H](CCCNC(=N)N)NC(=O)[C@H](CCSC)NC(=O)[C@@H](N)CCC(=O)O)[C@@H](C)CC)C(=O)N[C@@H](CCC(N)=O)C(=O)N[C@@H](CCCNC(=N)N)C(=O)N[C@@H](CCCCN)C(=O)N[C@@H](CCCCN)C(=O)O [CSP1-L13NL]	7.73	< 6.00		
EMRLSKYFRDFILQRKK-OH [CSP1-F7Y]	6.46			–^e
CSP1-F8FG (peptide)			884	
CSP1-L4V (peptide)			113	
competence stimulating peptide 1 (CSP1) (from UniProt P60242 25-41)			10.3	
CSP1-F8Y (peptide)			85	
CCCC[C@H](NC(=O)[C@H](Cc1ccccc1)NC(=O)[C@H](CC(=O)O)NC(=O)[C@H](CCCNC(=N)N)NC(=O)[C@H](Cc1ccccc1)NC(=O)[C@H](Cc1ccccc1)NC(=O)[C@H](CCCCN)NC(=O)[C@H](CO)NC(=O)[C@H](CC(C)C)NC(=O)[C@H](CCCNC(=N)N)NC(=O)[C@H](CCSC)NC(=O)[C@@H](N)CCC(=O)O)C(=O)N[C@@H](CC(C)C)C(=O)N[C@@H](CCC(N)=O)C(=O)N[C@@H](CCCNC(=N)N)C(=O)N[C@@H](CCCCN)C(=O)N[C@@H](CCCCN)C(=O)O [CSP1-I12NL] (H-EMRLSKFFRDF[Nle]LQRKK-OH; N-terminus assumed)	8.18	< 6.00		
CC[C@H](C)[C@H](NC(=O)[C@H](Cc1ccccc1)NC(=O)[C@H](CC(=O)O)NC(=O)[C@H](CCCNC(=N)N)NC(=O)[C@H](Cc1ccccc1)NC(=O)[C@@H](NC(=O)[C@H](CCCCN)NC(=O)[C@H](CO)NC(=O)[C@H](CC(C)C)NC(=O)[C@H](CCCNC(=N)N)NC(=O)[C@H](CCSC)NC(=O)[C@@H](N)CCC(=O)O)c1ccccc1)C(=O)N[C@@H](CC(C)C)C(=O)N[C@@H](CCC(N)=O)C(=O)N[C@@H](CCCNC(=N)N)C(=O)N[C@@H](CCCCN)C(=O)N[C@@H](CCCCN)C(=O)O [CSP1-F7FG] (H-EMRLSK[Phg]FRDFILQRKK-OH; N-terminus assumed)	7.09	6.08		
CSP1-F11Y (peptide)			95.6	
CCCC[C@H](NC(=O)[C@H](CCCNC(=N)N)NC(=O)[C@H](CCSC)NC(=O)[C@@H](N)CCC(=O)O)C(=O)N[C@@H](CO)C(=O)N[C@@H](CCCCN)C(=O)N[C@@H](Cc1ccccc1)C(=O)N[C@@H](Cc1ccccc1)C(=O)N[C@@H](CCCNC(=N)N)C(=O)N[C@@H](CC(=O)O)C(=O)N[C@@H](Cc1ccccc1)C(=O)N[C@H](C(=O)N[C@@H](CC(C)C)C(=O)N[C@@H](CCC(N)=O)C(=O)N[C@@H](CCCNC(=N)N)C(=O)N[C@@H](CCCCN)C(=O)N[C@@H](CCCCN)C(=O)O)[C@@H](C)CC [CSP1-L4NL]	7.87	< 6.00		
CC[C@H](C)[C@H](NC(=O)[C@@H](NC(=O)[C@H](CC(=O)O)NC(=O)[C@H](CCCNC(=N)N)NC(=O)[C@H](Cc1ccccc1)NC(=O)[C@H](Cc1ccccc1)NC(=O)[C@H](CCCCN)NC(=O)[C@H](CO)NC(=O)[C@H](CC(C)C)NC(=O)[C@H](CCCNC(=N)N)NC(=O)[C@H](CCSC)NC(=O)[C@@H](N)CCC(=O)O)c1ccccc1)C(=O)N[C@@H](CC(C)C)C(=O)N[C@@H](CCC(N)=O)C(=O)N[C@@H](CCCNC(=N)N)C(=O)N[C@@H](CCCCN)C(=O)N[C@@H](CCCCN)C(=O)O [CSP1-F11FG] (H-EMRLSKFFRD[Phg]ILQRKK-OH; N-terminus assumed)	< 6.00	< 6.00		
CCC[C@H](NC(=O)[C@@H](NC(=O)[C@H](Cc1ccccc1)NC(=O)[C@H](CC(=O)O)NC(=O)[C@H](CCCNC(=N)N)NC(=O)[C@H](Cc1ccccc1)NC(=O)[C@H](Cc1ccccc1)NC(=O)[C@H](CCCCN)NC(=O)[C@H](CO)NC(=O)[C@H](CC(C)C)NC(=O)[C@H](CCCNC(=N)N)NC(=O)[C@H](CCSC)NC(=O)[C@@H](N)CCC(=O)O)[C@@H](C)CC)C(=O)N[C@@H](CCC(N)=O)C(=O)N[C@@H](CCCNC(=N)N)C(=O)N[C@@H](CCCCN)C(=O)N[C@@H](CCCCN)C(=O)O [CSP1-L13NV] (H-EMRLSKFFRDFI[Nva]QRKK-OH; N-terminus assumed)	7.82	< 6.00		
EMRVSKFFRDFILQRKK-OH [CSP1-L4V]	6.95			–^e
EMRISKFFRDFILQRKK-OH [CSP1-L4I]	7.99	< 6.00		
CCC[C@H](NC(=O)[C@H](Cc1ccccc1)NC(=O)[C@H](CC(=O)O)NC(=O)[C@H](CCCNC(=N)N)NC(=O)[C@H](Cc1ccccc1)NC(=O)[C@H](Cc1ccccc1)NC(=O)[C@H](CCCCN)NC(=O)[C@H](CO)NC(=O)[C@H](CC(C)C)NC(=O)[C@H](CCCNC(=N)N)NC(=O)[C@H](CCSC)NC(=O)[C@@H](N)CCC(=O)O)C(=O)N[C@@H](CC(C)C)C(=O)N[C@@H](CCC(N)=O)C(=O)N[C@@H](CCCNC(=N)N)C(=O)N[C@@H](CCCCN)C(=O)N[C@@H](CCCCN)C(=O)O [CSP1-I12NV] (H-EMRLSKFFRDF[Nva]LQRKK-OH; N-terminus assumed)	7.86	6.07		
CSP1-F7Y (peptide)			344	
